Where “and” joins values, the source holds several entries; their conditions need not be identical. Identical values can stand only once.
Test system: anti-ATLA antibody
Test: ELISA of Example 24: single peptides and 1:1 mixture, dried stored cups
Type: binding, human
Details: for OD492: listed as Ex. 9
Experimental: Each serum specimen was assayed for the presence of the anti-ATLA antibody by the following ELISA in which an absorbance was measured.
The peptide prepared in Example 1 or the peptide prepared in Reference Example 9 were each dissolved in 0.01M carbonate buffer (pH 9.5) to prepare a solution containing each peptide. In addition, a solution containing both peptides was prepared by mixing the above two solutions at a concentration ratio of 1:1 (the former:the latter). Each 100 μl of the resulting peptide solutions was added to a cup for ELISA made of polystyrene (the same as mentioned above) and the mixture was allowed to stand at 4° C. overnight so that the peptide is coated on the cup. After removing the peptide solution in these cups, to each cup was added PBS (200 μl ) containing 20% by volume of normal goat serum and the mixture was allowed to stand at room temperature for 3 hours to block non-specific protein binding sites. After removing the blocking solution in the cups, the cups were dried and stored at 4° C.
Using PBS containing 10% by volume of normal goat serum and 0.05% by volume of Tween 20 as a diluent, the diluent and each serum specimen (15 specimens of the ATLV-carrier serum and 15 specimens of the normal human serum) was mixed at a ratio of 20:1 (diluent:specimen; v/v) and each 100 μl of the resulting diluted serums was added to above each assay cup. After incubation at 37° C. for 1 hour, the cups were washed with PBS containing 0.05% by volume of Tween 20 (×3) and then with PBS (×1).
To each resulting assay cup was added PBS containing horseradish peroxidase conjugated goat anti-human IgG antibody (diluted at an optimal concentration with PBS containing 10% by volume of normal goat serum and 0.2% by volume of Tween 20; 100 μl ). After incubation at 37° C. for 30 minutes, these cups were washed with PBS containing 0.05% by volume of Tween 20 (×3) and then with PBS (×1). […] After the mixtures were allowed to stand at room temperature for 15 minutes, to each mixture was added 1N sulfuric acid (100 μl) to stop the reaction and an absorbance at 492 nm (OD492) of each reaction solution was measured.
Cutoff value was determined using the OD492 values of the fifteen normal human serums and used for determination as to whether the specimens are positive or negative for the anti-ATLA antibody. The cutoff value was calculated by the equation: cutoff value = ((mean value of OD492 values of the normal human serum) +2SD). When the presence of the anti-ATLA antibody in each serum specimen was assayed using this cutoff value, all ATLV-carrier serums were determined to be positive and all normal human serums were determined to be negative.

## Example 9: peptide (I), X is -Lys-Lys-Lys-, A is the env peptide fragment (A-3); SEQ ID NO: 14 (KKKFLNTEPSQLPPTAPPLLPHSNLDHI)
ATLV-carrier serum, individual specimens No. 1-15, diluent:specimen 20:1
  OD492: 0.873 and 0.973 and 1.405 and 0.099 and 1.623 and 1.437 and 0.137 and 0.088 and 0.111 and 1.029 and 1.071 and 1.156 and 1.061 and 0.549 and 1.478
Mean OD492 of the normal human serum + 2SD
  Cutoff value: 0.158
Mean of the fifteen normal human serums
  Mean OD492: 0.096
Normal human serum, individual specimens No. 1-15
  OD492: 0.078 and 0.062 and 0.040 and 0.089 and 0.133 and 0.103 and 0.099 and 0.083 and 0.151 and 0.065 and 0.093 and 0.097 and 0.100 and 0.094 and 0.154

Source: US5194586A, “Anti-ATLA antibody binding peptides” (Kuraray Co., Ltd., priority 1989, dated 1993)
